Reference: patent publication US11053204B2, “Pyrimidinyloxy benzene derivatives as herbicides” (FMC Corporation, priority 2015, dated 2021)

Experiments:
Format in all cases: in vivo
[1] = tested on: Italian ryegrass (Lolium multiflorum); experiment: Test A preemergence, visual injury rating
Outline: (§1)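 Injury scores run from 0, no effect, to 100, complete control, judged by eye against untreated plants roughly 10 days after treatment. Chemicals carried a surfactant in a non-phytotoxic solvent and went onto loam–sand soil preemergence or onto one- to two-leaf seedlings postemergence.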

[2] = tested on: ragweed (common ragweed, Ambrosia elatior); experiment: Test A preemergence, visual injury rating
Outline: as §1

[3] = tested on: barnyardgrass (Echinochloa crus-galli); experiment: Test A preemergence, visual injury rating
Outline: as §1

[4] = tested on: giant foxtail (Setaria faberii); experiment: Test A preemergence, visual injury rating
Outline: as §1

[5] = tested on: pigweed (Amaranthus retroflexus); experiment: Test A preemergence, visual injury rating
Outline: as §1

[6] = tested on: kochia (Kochia scoparia); experiment: Test A preemergence, visual injury rating
Outline: as §1

[7] = tested on: wheat (Triticum aestivum); experiment: Test A postemergence, visual injury rating; conditions: 0 to 100 scale, 0 is no effect, 100 is complete control, approximately 10 days
Outline: as §1

[8] = tested on: Italian ryegrass (Lolium multiflorum); experiment: Test A postemergence, visual injury rating; conditions: 0 to 100 scale, 0 is no effect, 100 is complete control, approximately 10 days
Outline: as §1

[9] = tested on: blackgrass (Alopecurus myosuroides); experiment: Test A postemergence, visual injury rating; conditions: 0 to 100 scale, 0 is no effect, 100 is complete control, approximately 10 days
Outline: as §1

[10] = tested on: corn (Zea mays); experiment: Test A postemergence, visual injury rating; conditions: 0 to 100 scale, 0 is no effect, 100 is complete control, approximately 10 days
Outline: as §1

[11] = tested on: ragweed (common ragweed, Ambrosia elatior); experiment: Test A postemergence, visual injury rating; conditions: 0 to 100 scale, 0 is no effect, 100 is complete control, approximately 10 days
Outline: as §1

[12] = tested on: barnyardgrass (Echinochloa crus-galli); experiment: Test A postemergence, visual injury rating; conditions: 0 to 100 scale, 0 is no effect, 100 is complete control, approximately 10 days
Outline: as §1

[13] = tested on: giant foxtail (Setaria faberii); experiment: Test A postemergence, visual injury rating; conditions: 0 to 100 scale, 0 is no effect, 100 is complete control, approximately 10 days
Outline: as §1

[14] = tested on: pigweed (Amaranthus retroflexus); experiment: Test A postemergence, visual injury rating; conditions: 0 to 100 scale, 0 is no effect, 100 is complete control, approximately 10 days
Outline: as §1

[15] = tested on: kochia (Kochia scoparia); experiment: Test A postemergence, visual injury rating; conditions: 0 to 100 scale, 0 is no effect, 100 is complete control, approximately 10 days
Outline: as §1

[16] = tested on: galium (catchweed bedstraw, Galium aparine); experiment: Test A postemergence, visual injury rating; conditions: 0 to 100 scale, 0 is no effect, 100 is complete control, approximately 10 days
Outline: as §1

[17] = tested on: rice (Oryza sativa); experiment: Test B flooded paddy test, plant response rating; conditions: 250 g ai/ha; Flood; scale of 0 to 100 where 0 is no effect and 100 is complete control; 13 to 15 days
Outline: (§2)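 Compound was added to standing water 3 cm above soil, flood maintained, and plants held in a greenhouse before visual scoring against controls at 13 to 15 days.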

[18] = tested on: sedge, umbrella (small-flower umbrella sedge, Cyperus difformis); experiment: Test B flooded paddy test, plant response rating; conditions: 250 g ai/ha; Flood; scale of 0 to 100 where 0 is no effect and 100 is complete control; 13 to 15 days
Outline: as §2

[19] = tested on: barnyardgrass (Echinochloa crus-galli); experiment: Test B flooded paddy test, plant response rating; conditions: 250 g ai/ha; Flood; scale of 0 to 100 where 0 is no effect and 100 is complete control; 13 to 15 days
Outline: as §2

[20] = tested on: ducksalad (Heteranthera limosa); experiment: Test B flooded paddy test, plant response rating; conditions: 250 g ai/ha; Flood; scale of 0 to 100 where 0 is no effect and 100 is complete control; 13 to 15 days
Outline: as §2

[21] = 31 g ai/ha, 0 to 100 scale, 0 no effect, 100 complete control
[22] = 125 g ai/ha, 0 to 100 scale (0 no effect, 100 complete control)

SMILES	Plant response rating, Ryegrass, Italian [1, 21]	Plant response rating, Ryegrass, Italian [1, 22]	Plant response rating, Ragweed [2, 21]	Plant response rating, Ragweed [2, 22]	Plant response rating, Barnyardgrass [3, 21]	Plant response rating, Barnyardgrass [3, 22]	Plant response rating, Foxtail, Giant [4, 21]	Plant response rating, Foxtail, Giant [4, 22]	Plant response rating, Pigweed [5, 21]	Plant response rating, Pigweed [5, 22]	Plant response rating, Kochia [6, 21]	Plant response rating, Kochia [6, 22]	Wheat plant response rating ([7]; 31 g ai/ha)	Wheat plant response rating ([7]; 125 g ai/ha)	Ryegrass, Italian plant response rating ([8]; 31 g ai/ha)	Ryegrass, Italian plant response rating ([8]; 125 g ai/ha)	Blackgrass plant response rating ([9]; 31 g ai/ha)	Blackgrass plant response rating ([9]; 125 g ai/ha)	Corn plant response rating ([10]; 31 g ai/ha)	Corn plant response rating ([10]; 125 g ai/ha)	other results
N#Cc1cccc(Oc2ncc(Cl)cn2)c1C(=O)CCC(F)(F)C(F)(F)F [Compound 111]	0	0	0	0	0	0	0	0	0	0	0	0	0	0	0	0	0	0	0	0	Ragweed plant response rating ([11]; 31 g ai/ha): 0; Ragweed plant response rating ([11]; 125 g ai/ha): 0; Barnyardgrass plant response rating ([12]; 31 g ai/ha): 0; Barnyardgrass plant response rating ([12]; 125 g ai/ha): 0; Foxtail, Giant plant response rating ([13]; 31 g ai/ha): 0; Foxtail, Giant plant response rating ([13]; 125 g ai/ha): 0; Pigweed plant response rating ([14]; 31 g ai/ha): 0; Pigweed plant response rating ([14]; 125 g ai/ha): 0; Kochia plant response rating ([15]; 31 g ai/ha): 0; Kochia plant response rating ([15]; 125 g ai/ha): 0; Galium plant response rating ([16]; 31 g ai/ha): 0; Galium plant response rating ([16]; 125 g ai/ha): 0; Plant response rating, Rice [17]: 0; Plant response rating, Sedge, Umbrella [18]: 0; Plant response rating, Barnyardgrass [19]: 0; Plant response rating, Ducksalad [20]: 0
COc1cccc(Oc2ncc(Cl)cn2)c1C(=O)OCCC(F)(F)F [Compound 112]	10	0	0	0	0	80	0	70	60	100	0	50	0	0	0	0	0	30	0	0	Ragweed plant response rating ([11]; 31 g ai/ha): 20; Ragweed plant response rating ([11]; 125 g ai/ha): 40; Barnyardgrass plant response rating ([12]; 31 g ai/ha): 0; Barnyardgrass plant response rating ([12]; 125 g ai/ha): 10; Foxtail, Giant plant response rating ([13]; 31 g ai/ha): 0; Foxtail, Giant plant response rating ([13]; 125 g ai/ha): 30; Pigweed plant response rating ([14]; 31 g ai/ha): 40; Pigweed plant response rating ([14]; 125 g ai/ha): 70; Kochia plant response rating ([15]; 31 g ai/ha): 0; Kochia plant response rating ([15]; 125 g ai/ha): 30; Galium plant response rating ([16]; 31 g ai/ha): 60; Galium plant response rating ([16]; 125 g ai/ha): 80; Plant response rating, Rice [17]: 40; Plant response rating, Sedge, Umbrella [18]: 100; Plant response rating, Barnyardgrass [19]: 20; Plant response rating, Ducksalad [20]: 100
O=C(OCCC(F)(F)F)c1c(Oc2ncc(Cl)cn2)cccc1C(F)(F)F [Compound 113]	10	40	0	0	0	90	60	100	100	100	10	60	0	20	0	30	0	40	10	20	Ragweed plant response rating ([11]; 31 g ai/ha): 0; Ragweed plant response rating ([11]; 125 g ai/ha): 20; Barnyardgrass plant response rating ([12]; 31 g ai/ha): 10; Barnyardgrass plant response rating ([12]; 125 g ai/ha): 40; Foxtail, Giant plant response rating ([13]; 31 g ai/ha): 10; Foxtail, Giant plant response rating ([13]; 125 g ai/ha): 50; Pigweed plant response rating ([14]; 31 g ai/ha): 90; Pigweed plant response rating ([14]; 125 g ai/ha): 100; Kochia plant response rating ([15]; 31 g ai/ha): 80; Kochia plant response rating ([15]; 125 g ai/ha): 100; Galium plant response rating ([16]; 31 g ai/ha): 40; Galium plant response rating ([16]; 125 g ai/ha): 80; Plant response rating, Rice [17]: 20; Plant response rating, Sedge, Umbrella [18]: 90; Plant response rating, Barnyardgrass [19]: 65; Plant response rating, Ducksalad [20]: 80
CCCCC(C#N)c1c(Br)cccc1Oc1ncc(Cl)cn1 (stereo not drawn) [Compound 114]	0	0	20	80	0	20	10	90	0	30	0	10	0	10	0	10	0	10	10	20	Ragweed plant response rating ([11]; 31 g ai/ha): 0; Ragweed plant response rating ([11]; 125 g ai/ha): 20; Barnyardgrass plant response rating ([12]; 31 g ai/ha): 0; Barnyardgrass plant response rating ([12]; 125 g ai/ha): 10; Foxtail, Giant plant response rating ([13]; 31 g ai/ha): 0; Foxtail, Giant plant response rating ([13]; 125 g ai/ha): 20; Pigweed plant response rating ([14]; 31 g ai/ha): 50; Pigweed plant response rating ([14]; 125 g ai/ha): 100; Kochia plant response rating ([15]; 31 g ai/ha): 20; Kochia plant response rating ([15]; 125 g ai/ha): 80; Galium plant response rating ([16]; 31 g ai/ha): 50; Galium plant response rating ([16]; 125 g ai/ha): 80; Plant response rating, Rice [17]: 0; Plant response rating, Sedge, Umbrella [18]: 90; Plant response rating, Barnyardgrass [19]: 0; Plant response rating, Ducksalad [20]: 40
CC(C)Oc1cccc(Oc2ncc(Cl)cn2)c1C(=O)OCCC(F)(F)F [Compound 115]	0	0	20	0	0	0	0	0	0	0	70	0	0	0	0	0	0	20	0	10	Ragweed plant response rating ([11]; 31 g ai/ha): 0; Ragweed plant response rating ([11]; 125 g ai/ha): 0; Barnyardgrass plant response rating ([12]; 31 g ai/ha): 0; Barnyardgrass plant response rating ([12]; 125 g ai/ha): 0; Foxtail, Giant plant response rating ([13]; 31 g ai/ha): 0; Foxtail, Giant plant response rating ([13]; 125 g ai/ha): 0; Pigweed plant response rating ([14]; 31 g ai/ha): 10; Pigweed plant response rating ([14]; 125 g ai/ha): 40; Kochia plant response rating ([15]; 31 g ai/ha): 0; Kochia plant response rating ([15]; 125 g ai/ha): 0; Galium plant response rating ([16]; 31 g ai/ha): 20; Galium plant response rating ([16]; 125 g ai/ha): 20; Plant response rating, Rice [17]: 0; Plant response rating, Sedge, Umbrella [18]: 0; Plant response rating, Barnyardgrass [19]: 0; Plant response rating, Ducksalad [20]: 0
